Measured values taken from the kinase profiling compilation of Christmann-Franck et al. (2016).

Experiments:
Experiment in all cases: radiometric filter-binding kinase assay, Kinase HotSpot
Conditions in all cases: compound 0.5 µM; ATP 10 µM
CDK2 CCNE1 (human) = CDK2 CCNE1 (human) (UniProt P24941+P24864)
GRK6 (human) = GRK6 (human) (UniProt P43250)
EGFR (human) = EGFR (human) (UniProt P00533)
PAK1 (human) = PAK1 (human) (UniProt Q13153)
CDK5 CDK5R1 p35 (human) = CDK5 CDK5R1 p35 (human) (UniProt Q00535+Q15078)
GRK4 (human) = GRK4 (human) (UniProt P32298)
MARK2 (human) = MARK2 (human) (UniProt Q7KZI7)
HIPK1 (human) = HIPK1 (human) (UniProt Q86Z02)
MAP4K4 (human) = MAP4K4 (human) (UniProt O95819)
PRKCB1 (human) = PRKCB1 (human) (UniProt P05771)
MAPKAPK2 (human) = MAPKAPK2 (human) (UniProt P49137)
TAOK3 (human) = TAOK3 (human) (UniProt Q9H2K8)
CLK4 (human) = CLK4 (human) (UniProt Q9HAZ1)
EPHA2 (human) = EPHA2 (human) (UniProt P29317)
DCLK2 (human) = DCLK2 (human) (UniProt Q8N568)
LCK (human) = LCK (human) (UniProt P06239)
CAMK2D (human) = CAMK2D (human) (UniProt Q13557)
MAPKAPK3 (human) = MAPKAPK3 (human) (UniProt Q16644)
RPS6KA3 KD1 KD2 (human) = RPS6KA3 KD1 KD2 (human) (UniProt P51812)
EPHB1 (human) = EPHB1 (human) (UniProt P54762)
AXL (human) = AXL (human) (UniProt P30530)
CLK2 (human) = CLK2 (human) (UniProt P49760)
NLK (human) = NLK (human) (UniProt Q9UBE8)
MARK4 (human) = MARK4 (human) (UniProt Q96L34)
PDPK1 (human) = PDPK1 (human) (UniProt O15530)
MKNK2 (human) = MKNK2 (human) (UniProt Q9HBH9)
DAPK2 (human) = DAPK2 (human) (UniProt Q9UIK4)
HIPK4 (human) = HIPK4 (human) (UniProt Q8NE63)
SRMS (human) = SRMS (human) (UniProt Q9H3Y6)
VRK1 (human) = VRK1 (human) (UniProt Q99986)
MUSK (human) = MUSK (human) (UniProt O15146)
GSK3B (human) = GSK3B (human) (UniProt P49841)
PRKCB2 (human) = PRKCB2 (human) (UniProt P05771)
MAPKAPK5 (human) = MAPKAPK5 (human) (UniProt Q8IW41)
PAK6 (human) = PAK6 (human) (UniProt Q9NQU5)
TSSK2 (human) = TSSK2 (human) (UniProt Q96PF2)
TTK (human) = TTK (human) (UniProt P33981)
STK39 (human) = STK39 (human) (UniProt Q9UEW8)
LIMK1 (human) = LIMK1 (human) (UniProt P53667)
EPHA3 (human) = EPHA3 (human) (UniProt P29320)
FER (human) = FER (human) (UniProt P16591)
MAP4K2 (human) = MAP4K2 (human) (UniProt Q12851)

Sequence of PDPK1 (human) (O15530 whole entry, looked up): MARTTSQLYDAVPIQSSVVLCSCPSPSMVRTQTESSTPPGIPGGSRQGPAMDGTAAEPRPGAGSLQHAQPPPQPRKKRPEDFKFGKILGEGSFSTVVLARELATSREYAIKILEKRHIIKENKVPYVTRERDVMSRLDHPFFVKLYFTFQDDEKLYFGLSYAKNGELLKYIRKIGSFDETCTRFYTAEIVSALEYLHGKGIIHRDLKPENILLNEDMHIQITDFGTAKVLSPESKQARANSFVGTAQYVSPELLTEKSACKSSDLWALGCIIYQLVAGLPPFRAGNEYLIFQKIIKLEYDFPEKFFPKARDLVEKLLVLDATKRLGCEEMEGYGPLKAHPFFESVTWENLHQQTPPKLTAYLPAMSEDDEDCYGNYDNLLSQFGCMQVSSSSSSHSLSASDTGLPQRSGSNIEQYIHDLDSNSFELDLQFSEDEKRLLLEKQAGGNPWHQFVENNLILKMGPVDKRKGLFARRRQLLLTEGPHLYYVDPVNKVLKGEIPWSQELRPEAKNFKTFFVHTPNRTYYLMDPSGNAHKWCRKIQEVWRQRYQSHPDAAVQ
Sequence of TAOK3 (human) (Q9H2K8 whole entry, looked up): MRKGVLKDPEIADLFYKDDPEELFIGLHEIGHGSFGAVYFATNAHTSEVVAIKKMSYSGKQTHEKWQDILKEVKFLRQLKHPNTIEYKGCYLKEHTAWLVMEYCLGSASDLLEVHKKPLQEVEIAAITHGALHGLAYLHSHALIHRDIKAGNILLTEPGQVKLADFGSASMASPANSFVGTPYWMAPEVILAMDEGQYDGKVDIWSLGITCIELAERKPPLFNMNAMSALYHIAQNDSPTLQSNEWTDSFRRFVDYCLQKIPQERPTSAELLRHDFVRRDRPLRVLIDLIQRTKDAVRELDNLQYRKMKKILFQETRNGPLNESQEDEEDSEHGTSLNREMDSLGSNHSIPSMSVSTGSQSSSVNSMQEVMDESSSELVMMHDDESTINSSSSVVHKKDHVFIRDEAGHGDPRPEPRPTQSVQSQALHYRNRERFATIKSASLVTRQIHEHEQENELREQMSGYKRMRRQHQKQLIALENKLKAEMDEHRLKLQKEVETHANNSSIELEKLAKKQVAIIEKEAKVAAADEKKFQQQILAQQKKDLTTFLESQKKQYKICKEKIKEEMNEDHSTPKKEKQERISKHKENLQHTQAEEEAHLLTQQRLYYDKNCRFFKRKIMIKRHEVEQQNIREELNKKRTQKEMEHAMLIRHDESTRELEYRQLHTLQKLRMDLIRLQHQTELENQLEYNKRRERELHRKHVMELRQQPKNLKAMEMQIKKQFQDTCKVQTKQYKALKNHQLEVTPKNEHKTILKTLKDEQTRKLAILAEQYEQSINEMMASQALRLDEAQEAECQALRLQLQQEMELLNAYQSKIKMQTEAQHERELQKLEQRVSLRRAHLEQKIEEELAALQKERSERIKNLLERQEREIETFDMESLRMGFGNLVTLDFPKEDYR
Sequence of EPHA3 (human) (P29320 whole entry, looked up): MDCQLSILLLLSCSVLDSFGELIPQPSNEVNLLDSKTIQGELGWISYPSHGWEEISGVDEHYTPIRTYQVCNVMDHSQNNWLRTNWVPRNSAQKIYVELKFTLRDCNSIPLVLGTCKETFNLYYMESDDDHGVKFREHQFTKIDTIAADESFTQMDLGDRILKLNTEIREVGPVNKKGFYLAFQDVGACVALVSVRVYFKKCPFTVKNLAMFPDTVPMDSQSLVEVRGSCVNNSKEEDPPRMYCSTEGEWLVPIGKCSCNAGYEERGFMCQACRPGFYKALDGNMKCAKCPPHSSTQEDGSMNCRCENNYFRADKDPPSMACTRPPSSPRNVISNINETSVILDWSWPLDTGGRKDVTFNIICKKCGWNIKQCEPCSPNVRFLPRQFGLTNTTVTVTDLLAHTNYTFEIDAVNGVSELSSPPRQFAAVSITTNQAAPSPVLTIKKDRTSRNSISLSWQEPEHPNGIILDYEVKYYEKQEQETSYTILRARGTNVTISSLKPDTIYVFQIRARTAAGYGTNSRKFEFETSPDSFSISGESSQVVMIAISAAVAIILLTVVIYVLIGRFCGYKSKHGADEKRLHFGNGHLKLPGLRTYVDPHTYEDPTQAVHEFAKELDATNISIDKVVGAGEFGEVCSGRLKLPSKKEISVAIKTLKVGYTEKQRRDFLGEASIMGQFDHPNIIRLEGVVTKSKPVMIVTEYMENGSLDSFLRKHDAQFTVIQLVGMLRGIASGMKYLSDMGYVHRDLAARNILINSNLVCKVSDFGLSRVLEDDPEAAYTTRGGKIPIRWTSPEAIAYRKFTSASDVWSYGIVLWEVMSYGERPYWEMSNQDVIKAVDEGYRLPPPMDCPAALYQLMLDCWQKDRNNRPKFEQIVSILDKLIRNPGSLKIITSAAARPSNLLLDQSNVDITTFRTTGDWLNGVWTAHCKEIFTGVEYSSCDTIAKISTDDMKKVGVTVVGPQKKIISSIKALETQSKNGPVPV
Sequence of PAK1 (human) (Q13153 whole entry, looked up): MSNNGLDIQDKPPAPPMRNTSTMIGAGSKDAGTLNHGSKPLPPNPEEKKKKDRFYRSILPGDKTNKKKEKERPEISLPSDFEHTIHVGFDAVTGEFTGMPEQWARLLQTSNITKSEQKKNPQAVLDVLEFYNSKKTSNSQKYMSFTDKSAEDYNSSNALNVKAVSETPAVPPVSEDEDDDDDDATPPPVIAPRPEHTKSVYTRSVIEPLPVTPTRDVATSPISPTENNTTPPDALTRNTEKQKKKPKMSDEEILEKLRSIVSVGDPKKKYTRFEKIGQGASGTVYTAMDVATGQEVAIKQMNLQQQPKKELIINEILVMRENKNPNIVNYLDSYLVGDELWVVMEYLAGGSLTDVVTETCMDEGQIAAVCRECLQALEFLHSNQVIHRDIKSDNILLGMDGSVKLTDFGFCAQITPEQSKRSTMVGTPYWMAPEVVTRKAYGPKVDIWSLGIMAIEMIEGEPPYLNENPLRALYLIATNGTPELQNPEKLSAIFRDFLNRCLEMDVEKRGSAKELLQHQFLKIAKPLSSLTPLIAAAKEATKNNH
Sequence of MARK2 (human) (Q7KZI7 whole entry, looked up): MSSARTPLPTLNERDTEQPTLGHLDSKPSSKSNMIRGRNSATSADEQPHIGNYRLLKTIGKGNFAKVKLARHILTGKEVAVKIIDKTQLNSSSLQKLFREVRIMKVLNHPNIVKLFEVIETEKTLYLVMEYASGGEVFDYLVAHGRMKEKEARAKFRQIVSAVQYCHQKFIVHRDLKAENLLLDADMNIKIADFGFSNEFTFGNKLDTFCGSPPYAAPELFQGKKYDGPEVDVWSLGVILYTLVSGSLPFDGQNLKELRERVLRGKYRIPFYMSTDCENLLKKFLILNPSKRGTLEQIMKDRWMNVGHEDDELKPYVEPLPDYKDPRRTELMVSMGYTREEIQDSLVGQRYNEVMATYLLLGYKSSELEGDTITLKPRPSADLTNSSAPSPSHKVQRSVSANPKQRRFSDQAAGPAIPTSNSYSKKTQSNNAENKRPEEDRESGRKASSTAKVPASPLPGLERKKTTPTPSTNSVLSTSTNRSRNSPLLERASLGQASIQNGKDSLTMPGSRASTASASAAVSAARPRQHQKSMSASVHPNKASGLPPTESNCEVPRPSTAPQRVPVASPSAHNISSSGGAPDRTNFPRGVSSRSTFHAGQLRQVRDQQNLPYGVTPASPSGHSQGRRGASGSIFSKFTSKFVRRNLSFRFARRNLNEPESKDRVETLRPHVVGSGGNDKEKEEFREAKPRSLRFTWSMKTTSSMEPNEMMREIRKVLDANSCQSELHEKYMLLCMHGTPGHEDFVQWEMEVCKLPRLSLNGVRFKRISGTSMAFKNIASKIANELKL
Sequence of EGFR (human) (P00533 whole entry, looked up): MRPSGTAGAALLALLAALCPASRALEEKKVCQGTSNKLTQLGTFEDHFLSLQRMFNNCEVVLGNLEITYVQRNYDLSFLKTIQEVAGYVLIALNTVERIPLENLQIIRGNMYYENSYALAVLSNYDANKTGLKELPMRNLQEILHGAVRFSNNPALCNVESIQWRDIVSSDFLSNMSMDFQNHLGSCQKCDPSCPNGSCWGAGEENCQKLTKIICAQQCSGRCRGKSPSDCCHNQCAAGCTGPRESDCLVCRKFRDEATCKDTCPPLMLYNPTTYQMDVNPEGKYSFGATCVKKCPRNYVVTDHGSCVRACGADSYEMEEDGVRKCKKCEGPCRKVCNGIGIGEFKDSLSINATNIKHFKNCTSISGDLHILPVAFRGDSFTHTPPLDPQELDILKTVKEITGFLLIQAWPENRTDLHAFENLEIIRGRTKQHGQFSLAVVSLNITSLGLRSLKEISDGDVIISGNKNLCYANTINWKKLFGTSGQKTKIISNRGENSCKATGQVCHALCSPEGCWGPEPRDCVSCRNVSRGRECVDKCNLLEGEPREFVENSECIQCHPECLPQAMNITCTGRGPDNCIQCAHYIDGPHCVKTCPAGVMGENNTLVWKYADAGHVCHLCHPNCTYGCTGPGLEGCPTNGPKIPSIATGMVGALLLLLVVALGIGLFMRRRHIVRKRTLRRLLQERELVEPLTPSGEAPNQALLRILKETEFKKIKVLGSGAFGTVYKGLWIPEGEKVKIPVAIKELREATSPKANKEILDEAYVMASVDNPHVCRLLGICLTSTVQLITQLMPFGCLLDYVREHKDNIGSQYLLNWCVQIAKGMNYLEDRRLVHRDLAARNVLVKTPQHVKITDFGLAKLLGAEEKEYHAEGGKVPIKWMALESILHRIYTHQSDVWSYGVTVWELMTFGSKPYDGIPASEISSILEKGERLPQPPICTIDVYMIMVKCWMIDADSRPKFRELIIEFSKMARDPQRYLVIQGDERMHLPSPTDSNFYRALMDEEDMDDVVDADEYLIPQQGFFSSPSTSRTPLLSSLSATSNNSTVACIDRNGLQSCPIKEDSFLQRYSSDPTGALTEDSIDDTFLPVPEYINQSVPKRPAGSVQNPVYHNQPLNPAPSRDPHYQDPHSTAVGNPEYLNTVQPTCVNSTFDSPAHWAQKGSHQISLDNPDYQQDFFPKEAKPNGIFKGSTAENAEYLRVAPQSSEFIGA

For `O=C(c1cc2cc(O)ccc2[nH]1)c1cc2cc(O)ccc2[nH]1`, which residual activity (CDK2 CCNE1 (human)) is on record?
The residual activity was 65%.

What about the residual activity (GRK6 (human)) of the same compound?
Its residual activity is 102%.

What about the residual activity (EGFR (human)) of the same compound?
The residual activity was 97.6%.

And the residual activity (PAK1 (human))?
The residual activity was 94.6%.

And the residual activity (CDK5 CDK5R1 p35 (human))?
Its residual activity is 57.3%.

What about the residual activity (GRK4 (human)) of the same compound?
Its residual activity is 103%.

And the residual activity (MARK2 (human))?
The residual activity was 59.9%.

And the residual activity (HIPK1 (human))?
The residual activity was 94.3%.

And the residual activity (MAP4K4 (human))?
The residual activity was 6.63%.

And the residual activity (PRKCB1 (human))?
Its residual activity is 90.4%.

What about the residual activity (MAPKAPK2 (human)) of the same compound?
The residual activity was 103%.

And the residual activity (TAOK3 (human))?
The residual activity was 66.6%.

What about the residual activity (CLK4 (human)) of the same compound?
Its residual activity is 79.1%.

And the residual activity (EPHA2 (human))?
The residual activity was 101%.

What about the residual activity (DCLK2 (human)) of the same compound?
Its residual activity is 88.4%.

And the residual activity (LCK (human))?
The residual activity was 52%.

And the residual activity (CAMK2D (human))?
The residual activity was 63.7%.

What about the residual activity (MAPKAPK3 (human)) of the same compound?
Its residual activity is 91.2%.

What about the residual activity (RPS6KA3 KD1 KD2 (human)) of the same compound?
Its residual activity is 37.7%.

And the residual activity (EPHB1 (human))?
Its residual activity is 97%.

And the residual activity (AXL (human))?
The residual activity was 90.1%.

And the residual activity (CLK2 (human))?
Its residual activity is 105%.

What about the residual activity (NLK (human)) of the same compound?
The residual activity was 83.2%.

What about the residual activity (MARK4 (human)) of the same compound?
The residual activity was 55.3%.

What about the residual activity (PDPK1 (human)) of the same compound?
The residual activity was 97.2%.

What about the residual activity (MKNK2 (human)) of the same compound?
The residual activity was 46.8%.

What about the residual activity (DAPK2 (human)) of the same compound?
Its residual activity is 101%.

What about the residual activity (HIPK4 (human)) of the same compound?
The residual activity was 99.8%.

And the residual activity (SRMS (human))?
Its residual activity is 93.7%.

And the residual activity (VRK1 (human))?
The residual activity was 85.3%.

And the residual activity (MUSK (human))?
Its residual activity is 55.1%.

What about the residual activity (GSK3B (human)) of the same compound?
Its residual activity is 78.7%.

What about the residual activity (PRKCB2 (human)) of the same compound?
The residual activity was 98.9%.

What about the residual activity (MAPKAPK5 (human)) of the same compound?
The residual activity was 89.6%.

What about the residual activity (PAK6 (human)) of the same compound?
Its residual activity is 74.4%.

And the residual activity (TSSK2 (human))?
Its residual activity is 93.6%.

And the residual activity (TTK (human))?
The residual activity was 92.9%.

And the residual activity (STK39 (human))?
Its residual activity is 97.6%.

And the residual activity (LIMK1 (human))?
The residual activity was 87.9%.

And the residual activity (EPHA3 (human))?
The residual activity was 101%.

What about the residual activity (FER (human)) of the same compound?
The residual activity was 86.6%.

What about the residual activity (MAP4K2 (human)) of the same compound?
The residual activity was 67.1%.

With `O=C1NC(=O)c2c1c1c3ccccc3[nH]c1n1cncc21` as the compound, how does the residual activity (CDK2 CCNE1 (human)) read?
The residual activity was 66.5%.

What about the residual activity (GRK6 (human)) of the same compound?
Its residual activity is 82.1%.

And the residual activity (EGFR (human))?
The residual activity was 92.7%.

And the residual activity (PAK1 (human))?
Its residual activity is 93.9%.

What about the residual activity (CDK5 CDK5R1 p35 (human)) of the same compound?
The residual activity was 67%.

And the residual activity (GRK4 (human))?
Its residual activity is 101%.

And the residual activity (MARK2 (human))?
Its residual activity is 34.7%.

What about the residual activity (HIPK1 (human)) of the same compound?
Its residual activity is 82.6%.

And the residual activity (MAP4K4 (human))?
Its residual activity is 21.2%.

What about the residual activity (PRKCB1 (human)) of the same compound?
The residual activity was 95%.

What about the residual activity (MAPKAPK2 (human)) of the same compound?
Its residual activity is 98.9%.

What about the residual activity (TAOK3 (human)) of the same compound?
The residual activity was 66.9%.

And the residual activity (CLK4 (human))?
The residual activity was 99%.

What about the residual activity (EPHA2 (human)) of the same compound?
The residual activity was 102%.

What about the residual activity (DCLK2 (human)) of the same compound?
The residual activity was 82.3%.

What about the residual activity (LCK (human)) of the same compound?
Its residual activity is 87.1%.

And the residual activity (CAMK2D (human))?
The residual activity was 36.7%.

And the residual activity (MAPKAPK3 (human))?
Its residual activity is 88.7%.

And the residual activity (RPS6KA3 KD1 KD2 (human))?
The residual activity was 47.4%.

What about the residual activity (EPHB1 (human)) of the same compound?
The residual activity was 94%.

And the residual activity (AXL (human))?
The residual activity was 91.7%.

What about the residual activity (CLK2 (human)) of the same compound?
Its residual activity is 94.7%.

What about the residual activity (NLK (human)) of the same compound?
Its residual activity is 87.9%.

And the residual activity (MARK4 (human))?
Its residual activity is 26.8%.

What about the residual activity (PDPK1 (human)) of the same compound?
Its residual activity is 89%.

And the residual activity (MKNK2 (human))?
The residual activity was 35%.

What about the residual activity (DAPK2 (human)) of the same compound?
The residual activity was 43.8%.

What about the residual activity (HIPK4 (human)) of the same compound?
The residual activity was 98.5%.

And the residual activity (SRMS (human))?
The residual activity was 100%.

And the residual activity (VRK1 (human))?
The residual activity was 78.1%.

And the residual activity (MUSK (human))?
Its residual activity is 54.4%.

And the residual activity (GSK3B (human))?
Its residual activity is 30.8%.

And the residual activity (PRKCB2 (human))?
Its residual activity is 94.7%.

And the residual activity (MAPKAPK5 (human))?
Its residual activity is 123%.

And the residual activity (PAK6 (human))?
Its residual activity is 85.5%.

What about the residual activity (TSSK2 (human)) of the same compound?
Its residual activity is 99.1%.

And the residual activity (TTK (human))?
Its residual activity is 79%.

And the residual activity (STK39 (human))?
Its residual activity is 104%.

What about the residual activity (LIMK1 (human)) of the same compound?
The residual activity was 74.7%.

And the residual activity (EPHA3 (human))?
The residual activity was 105%.

And the residual activity (FER (human))?
The residual activity was 47.9%.

And the residual activity (MAP4K2 (human))?
The residual activity was 51.8%.
